One experiment addresses phosphorylated active hERK2 enzyme (Homo sapiens (Human), UniProt P28482).
Details: not given
Chain of phosphorylated active hERK2 enzyme (P28482 whole entry): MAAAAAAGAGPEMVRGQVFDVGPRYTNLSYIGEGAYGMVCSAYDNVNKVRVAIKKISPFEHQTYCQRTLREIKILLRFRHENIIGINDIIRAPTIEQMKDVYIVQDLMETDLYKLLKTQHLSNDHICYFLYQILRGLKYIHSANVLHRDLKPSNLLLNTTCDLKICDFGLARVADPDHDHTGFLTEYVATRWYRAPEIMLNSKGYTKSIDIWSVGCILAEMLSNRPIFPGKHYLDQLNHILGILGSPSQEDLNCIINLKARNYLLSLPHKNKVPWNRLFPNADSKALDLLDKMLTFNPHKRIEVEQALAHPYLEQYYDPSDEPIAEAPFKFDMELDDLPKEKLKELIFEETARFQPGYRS
Consider `CCO[C@H]1CCCC[C@@H]1NC(=O)Nc1cc2cnn(-c3ccnc(C)c3)c2cn1` (racemic) [Example 146, Racemic 1-[(1S,2S) and (1R,2R)-2-ethoxycyclohexyl]-3-[1-(2-methylpyridin-4-yl)-1H-pyrazolo[3,4-c]pyridin-5-yl]urea], for which the concentration for half-maximal inhibition (IC50) is 180 nM.

Still in this experiment, the particulars now being: read-out: ERK2 IC50; IMAP-FP assay; 0.5 nM hERK2, 30 μM ATP; 10 point titration, 3 μM starting concentration.
On to `Cc1cc(-n2ncc3cc(NC(=O)N[C@H]4[C@H](c5ccccc5)CN(C)C45COC5)ncc32)ccn1` [Example 107, 1-[(7R,8S)-5-methyl-7-phenyl-2-oxa-5-azaspiro[3.4]oct-8-yl]-3-[1-(2-methylpyridin-4-yl)-1H-pyrazolo[3,4-c]pyridin-5-yl)urea], for which the IC50 turned out to be 9.04 nM.

For `O=C(NCc1ccc(F)cc1)Nc1cc2cnn(-c3ccncc3)c2cn1` [Example 6, 1-(4-fluorobenzyl)-3-(1-pyridin-4-yl-1H-pyrazolo[3,4-c]pyridin-5-yl)urea], the IC50 was 1.8 nM. Same read-out and setting: the figure for `Cc1cc(-n2ncc3cc(NC(=O)NCC(c4ccc(F)cc4)N4CCCCC4)ncc32)ccn1` (stereo not shown) [Example 54, 1-[2-(4-fluorophenyl)-2-piperidin-1-ylethyl]-3-[1-(2-methylpyridin-4-yl)-1H-pyrazolo[3,4-c]pyridin-5-yl)urea] is 195 nM; for `Cc1cc(-n2ncc3cc(NC(=O)N[C@@H]4CN(C5CCC5)C[C@H]4c4ccccc4)ncc32)ccn1` [Example 196, 1-[(3S,4R)-1-cyclobutyl-4-phenylpyrrolidin-3-yl]-3-[1-(2-methylpyridin-4-yl)-1H-pyrazolo[3,4-c]pyridin-5-yl]urea] it is 354 nM; for `Cc1cc(-n2ncc3cc(NC(=O)N[C@H](C)c4ccccc4)nc(C)c32)ccn1` [Example 251, 1-[7-methyl-1-(2-methylpyridin-4-yl)-1H-pyrazolo[3,4-c]pyridin-5-yl]-3-[(1R)-1-phenylethyl]urea] it is 2.81 nM. Still for that read-out and setting: the figure for `O=C(Nc1cc2cnn(-c3ccncc3)c2cn1)N[C@@H](c1ccccc1)C(F)(F)F` [Example 38, 1-(1-pyridin-4-yl-1H-pyrazolo[3,4-c]pyridin-5-yl)-3-[(1S)-2,2,2-trifluoro-1-phenylethyl]urea] is 19.4 nM; for `O=C(NCc1cccnc1)Nc1cc2cnn(-c3ccncc3)c2cn1` [Example 39, 1-(pyridin-3-ylmethyl)-3-(1-pyridin-4-yl-1H-pyrazolo[3,4-c]pyridin-5-yl)urea] it is 171 nM; for `COC[C@@H](NC(=O)Nc1cc2cnn(-c3ccnc(C)c3)c2cn1)c1ccccc1` [Example 90, 1-[(1S)-2-methoxy-1-phenylethyl]-3-[1-(2-methylpyridin-4-yl)-1H-pyrazolo[3,4-c]pyridin-5-yl)urea] it is 0.68 nM.

Regarding `Cc1cc(-n2ncc3cc(NC(=O)N[C@@H]4CCN(Cc5c(F)cccc5F)C4)ncc32)ccn1` [Example 283, 1-[(3R)-1-(2,6-difluorobenzyl)pyrrolidin-3-yl]-3-[1-(2-methylpyridin-4-yl)-1H-pyrazolo[3,4-c]pyridin-5-yl]urea], the IC50 is 0.323 nM.

Consider `Cn1ncc2cc(NC(=O)N[C@@H](c3ccccc3)C(C)(C)O)ncc21` [Example 228, 1-[(1S)-2-hydroxy-2-methyl-1-phenylpropyl]-3-(1-methyl-1H-pyrazolo[3,4-c]pyridin-5-yl)urea], for which the 50% inhibitory concentration (IC50) is 36.9 nM.

`Cc1cc(-n2ncc3cc(NC(=O)NCCF)ncc32)ccn1` [Example 110, 1-(2-fluoroethyl)-3-[1-(2-methylpyridin-4-yl)-1H-pyrazolo[3,4-c]pyridin-5-yl]urea]: the IC50 worked out at 106 nM. As for `Cc1cc(-n2ncc3cc(NC(=O)NC4CCN(Cc5ccccc5C#N)C4)ncc32)ccn1` (stereo not shown) [Example 280, 1-[1-(2-cyanobenzyl)pyrrolidin-3-yl]-3-[1-(2-methylpyridin-4-yl)-1H-pyrazolo[3,4-c]pyridin-5-yl]urea], the IC50 was determined as 4.35 nM. On the same count and under the same terms, the figure for `Cc1cc(-n2ncc3cc(NC(=O)N[C@@H]4CN(C)[C@@H](C)[C@H]4c4ccccc4C)ncc32)ccn1` [Example 105, 1-[(3S,4S,5S)-1,5-dimethyl-4-(2-methylphenyl)-pyrrolidin-3-yl]-3-[1-(2-methylpyridin-4-yl)-1H-pyrazolo[3,4-c]pyridin-5-yl)urea] is 2.15 nM.

As for `Cc1cc(-n2ncc3cc(NC(=O)N[C@H]4CNC[C@@H]4Oc4cncc(F)c4)ncc32)ccn1` [Example 275, 1-{(3S,4S)-4-[(5-fluoropyridin-3-yl)oxy]pyrrolidin-3-yl}-3-[1-(2-methylpyridin-4-yl)-1H-pyrazolo[3,4-c]pyridin-5-yl]urea], the IC50 was determined as 327 nM.

Turning to `Cc1cc(-n2ncc3cc(NC(=O)N[C@@H](c4ccccc4)C(C)(C)O)ncc32)ccn1` [Example 292, (S)-1-(2-methyl-2-hydroxy-1-phenylpropyl)-3-(1-(2-methylpyridin-4-yl)-1H-pyrazolo[3,4-c]pyridin-5-yl)urea], the IC50 was 0.558 nM. `Cc1cc(-n2ncc3cc(NC(=O)NCc4cccc(S(C)(=O)=O)c4)ncc32)ccn1` [Example 93, 1-[1-(2-methylpyridin-4-yl)-1H-pyrazolo[3,4-c]pyridin-5-yl]-3-[3-(methylsulfonyl)-benzyl]urea]: the IC50 was 1.44 nM. Take `Cc1cc(-n2ncc3cc(NC(=O)NCCN4CC5CC4CN5c4ccccc4)ncc32)ccn1` (stereo not shown) [Example 70, 1-[1-(2-methylpyridin-4-yl)-1H-pyrazolo[3,4-c]pyridin-5-yl]-3-[2-(5-phenyl-2,5-diazabicyclo[2.2.1]hept-2-yl)ethyl]urea]: the IC50 is 16.9 nM. On the same count and under the same terms, the figure for `CNC(=O)c1ccc(CNC(=O)Nc2cc3cnn(-c4ccnc(C)c4)c3cn2)cc1` [Example 92, N-methyl-4-[({[1-(2-methylpyridin-4-yl)-1H-pyrazolo[3,4-c]pyridin-5-yl]carbamoyl}amino)methyl] benzamide] is 801 nM; for `Cc1cc(-n2ncc3cc(NC(=O)NC4(C#N)CC4)ncc32)ccn1` [Example 121, 1-(1-cyanocyclopropyl)-3-[1-(2-methylpyridin-4-yl)-1H-pyrazolo[3,4-c]pyridin-5-yl]urea] it is 1810 nM; for `Cc1cc(-n2ncc3cc(NC(=O)NCCOCc4ccccc4)ncc32)ccn1` [Example 95, 1-[2-(benzyloxy)ethyl]-3-[1-(2-methylpyridin-4-yl)-1H-pyrazolo[3,4-c]pyridin-5-yl]urea] it is 5.4 nM.

As to `Cc1cc(-n2ncc3cc(NC(=O)N[C@@H]4CN(C)C[C@H]4c4ccccc4C)ncc32)ccn1` [Example 190, 1-[(3S,4R)-1-methyl-4-(2-methylphenyl)pyrrolidin-3-yl]-3-[1-(2-methylpyridin-4-yl)-1H-pyrazolo[3,4-c]pyridin-5-yl]urea], the concentration for half-maximal inhibition (IC50) stood at 11.7 nM. The same measure, in the same setting: as for `Cc1cc(-n2ncc3cc(NC(=O)N[C@@H]4CCN(C)C4)ncc32)ccn1` [Example 20, 1-[1-(2-methylpyridin-4-yl)-1H-pyrazolo[3,4-c]pyridin-5-yl]-3-[(3R)-1-methylpyrrolidin-3-yl)urea], the figure is 50.5 nM. Still for that read-out and setting: as for `Cc1cc(-n2ncc3cc(NC(=O)N[C@H](C)c4ccc(F)cc4)ncc32)ccn1` [Example 223, (R)-1-(1-(4-fluorophenyl)ethyl)-3-(1-(2-methylpyridin-4-yl)-1H-pyrazolo[3,4-c]pyridin-5-yl)urea], the figure is 2.28 nM; as for `Cc1cc(-n2ncc3cc(NC(=O)N[C@H]4CN(C)C5(COC5)[C@@H]4c4ccccc4)ncc32)ccn1` [Example 202, 1-[(7R,8R)-5-methyl-8-phenyl-2-oxa-5-azaspiro[3.4]oct-7-yl]-3-[1-(2-methylpyridin-4-yl)-1H-pyrazolo[3,4-c]pyridin-5-yl]urea], 300 nM; as for `Cc1cc(-n2ncc3cc(NC(=O)NC4CCCC(c5ccc(F)cc5)C4)ncc32)ccn1` (stereo not shown) [Example 173, 1-[3-(4-fluorophenyl)cyclohexyl]-3-[1-(2-methylpyridin-4-yl)-1H-pyrazolo[3,4-c]pyridin-5-yl]urea], 11.6 nM. Same read-out and setting: the figure for `Cc1cc(-n2ncc3cc(NC(=O)NCc4sc(C(C)C)nc4C)ncc32)ccn1` [Example 68, 1-{[4-methyl-2-(1-methylethyl)-1,3-thiazol-5-yl]methyl}-3-[1-[2-methylpyridin-4-yl)-1H-pyrazolo[3,4-c]pyridin-5-yl]urea] is 707 nM; for `C[C@@H](NC(=O)Nc1cc2cnn(CC3CCC3)c2c(CO)n1)c1ccccc1` [Example 304, 1-[1-(cyclobutylmethyl)-7-(hydroxymethyl)-1H-pyrazolo[3,4-c]pyridin-5-yl]-3-[(1R)-1-phenylethyl]urea] it is 230 nM; for `Cc1cc(-n2ncc3cc(NC(=O)N[C@@H]4CN(C)C[C@H]4c4nc(C)cs4)ncc32)ccn1` [Example 126, 1-[(3S,4R)-1-methyl-4-(4-methyl-1,3-thiazol-2-yl)pyrrolidin-3-yl]-3-[1-(2-methylpyridin-4-yl)-1H-pyrazolo[3,4-c]pyridin-5-yl)urea] it is 15.8 nM. `CO[C@H]1CN(Cc2c(F)cccc2F)C[C@@H]1NC(=O)Nc1cc2cnn(-c3ccnc(C)c3)c2cn1` [Example 269, 1-[(3S,4S)-1-(2,6-difluorobenzyl)-4-methoxypyrrolidin-3-yl]-3-[1-(2-methylpyridin-4-yl)-1H-pyrazolo[3,4-c]pyridin-5-yl]urea]: the half-maximal inhibitory concentration (IC50) stood at 5.39 nM. Still for that read-out and setting: the figure for `Cc1cc(-n2ncc3cc(NC(=O)N[C@H]4CCN(Cc5c(F)cccc5F)C4)ncc32)ccn1` [Example 282, 1-[(3S)-1-(2,6-difluorobenzyl)pyrrolidin-3-yl]-3-[1-(2-methylpyridin-4-yl)-1H-pyrazolo[3,4-c]pyridin-5-yl]urea] is 169 nM; for `Cc1cc(-n2ncc3cc(NC(=O)NC(C)c4ccc(S(C)(=O)=O)cc4)ncc32)ccn1` (stereo not shown) [Example 66, 1-[1-(2-methylpyridin-4-yl)-1H-pyrazolo[3,4-c]pyridin-5-yl]-3-{1-[4-(methylsulfonyl)phenyl]ethyl}urea] it is 7.78 nM; for `O=C(NCc1ccccc1)Nc1cc2cnn(-c3ccncc3)c2cn1` [Example 2, 1-benzyl-3-(1-pyridin-4-yl-1H-pyrazolo[3,4-c]pyridin-5-yl)urea] it is 2.7 nM. With `Cc1cc(-n2ncc3cc(NC(=O)NC4CNCC(c5ccccc5)C4)ncc32)ccn1` (stereo not shown) [Example 288, 1-[1-(2-methylpyridin-4-yl)-1H-pyrazolo[3,4-c]pyridin-5-yl]-3-(5-phenylpiperidin-3-yl)urea], the half-inhibitory concentration (IC50) came out at 10.5 nM.

Broadly, the IC50 is the concentration that gives 50% inhibition.
